*1 amine or outer side, *2 acyl side, *3 side chain or, on linkers, in order; H or OH if unused. Where a SMILES comes first, the peptide text is derived from it. Side-chain parts run from the residue outwards. [ ]: non-standard residue; d: D form. The star is where a group is joined. γGlu = O=C(O)[C@H](CCC(=O)[*:2])N[*:1]; Stearoyl = CCCCCCCCCCCCCCCCCC(=O)*; Palmitoyl = CCCCCCCCCCCCCCCC(=O)*; Aib = CC(C)(N)C(=O)O
Assays:
Assay type in all cases: cell-based
Details in all cases: Table 7; cAMP formation
[1] = biological target: T1, human glucagon receptor (hGLUC R) (Homo sapiens, UniProt P47871); experiment: cAMP response of HEK-293 cells stably expressing human glucagon receptor (HTRF)
T1 construct: expressed in transfected cells
T1 sequence (P47871 26-477): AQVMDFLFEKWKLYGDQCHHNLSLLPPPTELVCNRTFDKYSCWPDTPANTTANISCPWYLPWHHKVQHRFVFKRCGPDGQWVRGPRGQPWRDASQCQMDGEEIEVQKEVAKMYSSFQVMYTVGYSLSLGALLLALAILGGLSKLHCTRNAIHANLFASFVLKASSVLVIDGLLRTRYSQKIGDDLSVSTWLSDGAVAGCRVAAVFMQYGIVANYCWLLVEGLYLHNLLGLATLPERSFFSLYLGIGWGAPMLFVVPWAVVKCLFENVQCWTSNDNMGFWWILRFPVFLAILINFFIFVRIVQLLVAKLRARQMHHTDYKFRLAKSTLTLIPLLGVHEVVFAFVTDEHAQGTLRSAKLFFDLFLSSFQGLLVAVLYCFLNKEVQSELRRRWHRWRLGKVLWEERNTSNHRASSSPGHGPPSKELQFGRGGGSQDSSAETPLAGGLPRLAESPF
In short: (§1)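 Intracellular cAMP is quantified by HTRF following a 30-minute room-temperature incubation of cell suspensions (400000 cells/ml) with test compound in HBSS, 20 mM HEPES, 0.1% BSA and 2 mM IBMX.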

[2] = biological target: T2, human GLP-1 receptor (hGLP-1 R) (Homo sapiens, UniProt P43220); experiment: cAMP response of HEK-293 cells stably expressing human GLP-1 receptor (HTRF)
T2 construct: expressed in transfected cells
T2 sequence (P43220 24-463): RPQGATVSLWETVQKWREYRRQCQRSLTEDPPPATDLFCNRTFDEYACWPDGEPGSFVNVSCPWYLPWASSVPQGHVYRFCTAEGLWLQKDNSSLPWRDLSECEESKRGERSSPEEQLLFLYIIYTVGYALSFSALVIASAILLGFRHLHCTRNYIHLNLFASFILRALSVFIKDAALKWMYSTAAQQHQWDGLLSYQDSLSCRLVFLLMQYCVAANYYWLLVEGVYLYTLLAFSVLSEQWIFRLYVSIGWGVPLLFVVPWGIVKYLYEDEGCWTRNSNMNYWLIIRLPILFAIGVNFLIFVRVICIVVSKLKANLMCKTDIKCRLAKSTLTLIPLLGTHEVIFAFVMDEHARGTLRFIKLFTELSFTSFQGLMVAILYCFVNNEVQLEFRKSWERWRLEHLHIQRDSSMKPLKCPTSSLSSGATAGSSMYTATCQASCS
In short: as §1

[3] = biological target: T3, human GIP receptor (hGIP R) (Homo sapiens, UniProt P48546); experiment: cAMP response of HEK-293 cells stably expressing human GIP receptor (HTRF)
T3 construct: expressed in transfected cells
T3 sequence (P48546 22-466): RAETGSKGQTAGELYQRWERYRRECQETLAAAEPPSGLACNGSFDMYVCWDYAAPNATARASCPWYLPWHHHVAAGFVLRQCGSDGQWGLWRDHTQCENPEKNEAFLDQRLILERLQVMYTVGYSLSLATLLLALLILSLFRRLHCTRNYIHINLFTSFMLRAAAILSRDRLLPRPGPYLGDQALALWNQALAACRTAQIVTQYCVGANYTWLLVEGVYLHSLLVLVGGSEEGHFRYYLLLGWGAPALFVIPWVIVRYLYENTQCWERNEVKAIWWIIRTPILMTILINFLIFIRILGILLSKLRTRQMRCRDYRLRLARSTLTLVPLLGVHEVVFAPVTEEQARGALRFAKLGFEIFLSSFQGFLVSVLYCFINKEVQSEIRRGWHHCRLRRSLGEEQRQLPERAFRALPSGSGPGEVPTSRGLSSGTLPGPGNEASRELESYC
In short: as §1

`CCCCCCCCCCCCCCCC(=O)N[C@@H](CCC(=O)NCCCC[C@H](NC(=O)[C@H](CCC(N)=O)NC(=O)[C@@H](NC(=O)[C@H](CO)NC(=O)[C@H](CC(C)C)NC(=O)[C@H](CC(=O)O)NC(=O)[C@H](CO)NC(=O)[C@@H](NC(=O)[C@H](Cc1ccccc1)NC(=O)[C@@H](NC(=O)CNC(=O)[C@H](CCC(N)=O)NC(=O)C(C)(C)NC(=O)[C@@H](N)Cc1ccc(O)cc1)[C@@H](C)O)[C@@H](C)O)[C@@H](C)CC)C(=O)N[C@@H](CCC(=O)O)C(=O)N[C@@H](CCCCN)C(=O)N[C@@H](CCCNC(=N)N)C(=O)N[C@@H](C)C(=O)N[C@H](C(=O)NC(C)(C)C(=O)N[C@@H](CCC(=O)O)C(=O)N[C@@H](Cc1ccccc1)C(=O)N[C@H](C(=O)N[C@@H](CCC(=O)O)C(=O)N[C@@H](Cc1c[nH]c2ccccc12)C(=O)N[C@@H](CC(C)C)C(=O)N[C@@H](CCCCN)C(=O)N[C@@H](C)C(=O)NCC(=O)NCC(=O)N1CCC[C@H]1C(=O)N[C@@H](CO)C(=O)N[C@@H](CO)C(=O)NCC(=O)N[C@@H](C)C(=O)N1CCC[C@H]1C(=O)N1CCC[C@H]1C(=O)N1CCC[C@H]1C(=O)N[C@@H](CO)C(N)=O)[C@@H](C)CC)C(C)C)C(=O)O` [SEQ ID NO: 26, Y-Aib-Q-G-T-F-T-S-D-L-S-I-Q-K(yE-x53)-E-K-R-A-V-Aib-E-F-I-E-W-L-K-A-G-G-P-S-S-G-A-P-P-P-S-NH2] (H-Y[Aib]QGTFTSDLSIQK([γGlu-Palmitoyl])EKRAV[Aib]EFIEWLKAGGPSSGAPPPS-NH2) gave an EC50 [1] of 0.3 nM, an EC50 [2] of 0.0176 nM and an EC50 [3] of 0.0053 nM.
`CCCCCCCCCCCCCCCC(=O)N[C@@H](CCC(=O)NCCCC[C@H](NC(=O)[C@H](CCC(N)=O)NC(=O)[C@@H](NC(=O)[C@H](CO)NC(=O)[C@H](CC(C)C)NC(=O)[C@H](CC(=O)O)NC(=O)[C@H](CO)NC(=O)[C@@H](NC(=O)[C@H](Cc1ccccc1)NC(=O)[C@@H](NC(=O)CNC(=O)[C@H](CCC(N)=O)NC(=O)C(C)(C)NC(=O)[C@@H](N)Cc1ccc(O)cc1)[C@@H](C)O)[C@@H](C)O)[C@@H](C)CC)C(=O)N[C@@H](CC(=O)O)C(=O)N[C@@H](CCCCN)C(=O)N[C@@H](CCCNC(=N)N)C(=O)N[C@@H](C)C(=O)N[C@@H](C)C(=O)NC(C)(C)C(=O)N[C@@H](CC(C)C)C(=O)N[C@@H](Cc1ccccc1)C(=O)N[C@H](C(=O)N[C@@H](CCC(=O)O)C(=O)N[C@@H](Cc1c[nH]c2ccccc12)C(=O)N[C@@H](CC(C)C)C(=O)N[C@@H](CCCCN)C(=O)N[C@@H](C)C(=O)NCC(=O)NCC(=O)N1CCC[C@H]1C(=O)N[C@@H](CO)C(=O)N[C@@H](CO)C(=O)NCC(=O)N[C@@H](C)C(=O)N1CCC[C@H]1C(=O)N1CCC[C@H]1C(=O)N1CCC[C@H]1C(=O)N[C@@H](CO)C(N)=O)[C@@H](C)CC)C(=O)O` [SEQ ID NO: 27, Y-Aib-Q-G-T-F-T-S-D-L-S-I-Q-K(yE-x53)-D-K-R-A-A-Aib-L-F-I-E-W-L-K-A-G-G-P-S-S-G-A-P-P-P-S-NH2] (H-Y[Aib]QGTFTSDLSIQK([γGlu-Palmitoyl])DKRAA[Aib]LFIEWLKAGGPSSGAPPPS-NH2) gave an EC50 [1] of 0.0389 nM, an EC50 [2] of 0.0147 nM and an EC50 [3] of 0.0826 nM.
`CCCCCCCCCCCCCCCC(=O)N[C@@H](CCC(=O)NCCCC[C@H](NC(=O)[C@H](CCC(N)=O)NC(=O)[C@H](CCCCN)NC(=O)[C@H](CO)NC(=O)[C@H](CC(C)C)NC(=O)[C@H](CC(=O)O)NC(=O)[C@H](CO)NC(=O)[C@@H](NC(=O)[C@H](Cc1ccccc1)NC(=O)[C@@H](NC(=O)CNC(=O)[C@H](Cc1c[nH]cn1)NC(=O)C(C)(C)NC(=O)[C@@H](N)Cc1ccc(O)cc1)[C@@H](C)O)[C@@H](C)O)C(=O)N[C@@H](CCC(=O)O)C(=O)N[C@@H](CCCCN)C(=O)N[C@@H](CCCNC(=N)N)C(=O)N[C@@H](C)C(=O)N[C@@H](C)C(=O)NC(C)(C)C(=O)N[C@@H](CCC(=O)O)C(=O)N[C@@H](Cc1ccccc1)C(=O)N[C@H](C(=O)N[C@@H](CCC(=O)O)C(=O)N[C@@H](Cc1c[nH]c2ccccc12)C(=O)N[C@@H](CC(C)C)C(=O)N[C@@H](CCCCN)C(=O)N[C@@H](CC(N)=O)C(=O)N[C@H](C(=O)NCC(=O)N1CCC[C@H]1C(=O)N[C@@H](CO)C(=O)N[C@@H](CO)C(=O)NCC(=O)N[C@@H](C)C(=O)N1CCC[C@H]1C(=O)N1CCC[C@H]1C(=O)N1CCC[C@H]1C(=O)N[C@@H](CO)C(N)=O)[C@@H](C)O)[C@@H](C)CC)C(=O)O` [SEQ ID NO: 28, Y-Aib-H-G-T-F-T-S-D-L-S-K-Q-K(yE-x53)-E-K-R-A-A-Aib-E-F-I-E-W-L-K-N-T-G-P-S-S-G-A-P-P-P-S-NH2] (H-Y[Aib]HGTFTSDLSKQK([γGlu-Palmitoyl])EKRAA[Aib]EFIEWLKNTGPSSGAPPPS-NH2) showed an EC50 [1] of 0.0048 nM, an EC50 [2] of 0.0583 nM and an EC50 [3] of 0.0368 nM.
Molecule `CCCCCCCCCCCCCCCCCC(=O)N[C@@H](CCC(=O)NCCCC[C@H](NC(=O)[C@H](CCC(N)=O)NC(=O)[C@@H](NC(=O)[C@H](CO)NC(=O)[C@H](CC(C)C)NC(=O)[C@H](CC(=O)O)NC(=O)[C@H](CO)NC(=O)[C@@H](NC(=O)[C@H](Cc1ccccc1)NC(=O)[C@@H](NC(=O)CNC(=O)[C@H](CCC(=O)O)NC(=O)C(C)(C)NC(=O)[C@@H](N)Cc1ccc(O)cc1)[C@@H](C)O)[C@@H](C)O)[C@@H](C)CC)C(=O)N[C@@H](CCC(=O)O)C(=O)N[C@@H](CO)C(=O)N[C@@H](CCCCN)C(=O)N[C@@H](C)C(=O)N[C@@H](C)C(=O)NC(C)(C)C(=O)N[C@@H](CCC(=O)O)C(=O)N[C@@H](Cc1ccccc1)C(=O)N[C@H](C(=O)N[C@@H](CCC(=O)O)C(=O)N[C@@H](Cc1c[nH]c2ccccc12)C(=O)N[C@@H](CC(C)C)C(=O)N[C@@H](CCCCN)C(=O)N[C@@H](C)C(=O)NCC(=O)NCC(=O)N1CCC[C@H]1C(=O)N[C@@H](CO)C(=O)N[C@@H](CO)C(=O)NCC(=O)N[C@@H](C)C(=O)N1CCC[C@H]1C(=O)N1CCC[C@H]1C(=O)N1CCC[C@H]1C(=O)N[C@@H](CO)C(N)=O)[C@@H](C)CC)C(=O)O` [SEQ ID NO: 29, Y-Aib-E-G-T-F-T-S-D-L-S-I-Q-K(yE-x70)-E-S-K-A-A-Aib-E-F-I-E-W-L-K-A-G-G-P-S-S-G-A-P-P-P-S-NH2] (H-Y[Aib]EGTFTSDLSIQK([γGlu-Stearoyl])ESKAA[Aib]EFIEWLKAGGPSSGAPPPS-NH2) has an EC50 [1] of 15 nM, an EC50 [2] of 0.0072 nM and an EC50 [3] of 0.013 nM.
In the case of `CCCCCCCCCCCCCCCC(=O)N[C@@H](CCC(=O)NCCCC[C@H](NC(=O)[C@H](CCC(N)=O)NC(=O)[C@H](CCCCN)NC(=O)[C@H](CO)NC(=O)[C@H](CC(C)C)NC(=O)[C@H](CC(=O)O)NC(=O)[C@H](CO)NC(=O)[C@@H](NC(=O)[C@H](Cc1ccccc1)NC(=O)[C@@H](NC(=O)CNC(=O)[C@H](CCC(=O)O)NC(=O)C(C)(C)NC(=O)[C@@H](N)Cc1ccc(O)cc1)[C@@H](C)O)[C@@H](C)O)C(=O)N[C@@H](CC(=O)O)C(=O)N[C@@H](CCCCN)C(=O)N[C@@H](CCCNC(=N)N)C(=O)N[C@@H](C)C(=O)N[C@@H](C)C(=O)N[C@@H](CCC(N)=O)C(=O)N[C@@H](CC(=O)O)C(=O)N[C@@H](Cc1ccccc1)C(=O)N[C@H](C(=O)N[C@@H](CCC(=O)O)C(=O)N[C@@H](Cc1c[nH]c2ccccc12)C(=O)N[C@@H](CC(C)C)C(=O)N[C@@H](CCCCN)C(=O)N[C@@H](CC(N)=O)C(=O)NCC(=O)NCC(=O)N1CCC[C@H]1C(=O)N[C@@H](CO)C(=O)N[C@@H](CO)C(=O)NCC(=O)N[C@@H](C)C(=O)N1CCC[C@H]1C(=O)N1CCC[C@H]1C(=O)N1CCC[C@H]1C(=O)N[C@@H](CO)C(N)=O)[C@@H](C)CC)C(=O)O` [SEQ ID NO: 30, Y-Aib-E-G-T-F-T-S-D-L-S-K-Q-K(yE-x53)-DKRAAQDFIEWLKNGGPSSGAPPPS-NH2] (H-Y[Aib]EGTFTSDLSKQK([γGlu-Palmitoyl])DKRAAQDFIEWLKNGGPSSGAPPPS-NH2), the EC50 [1] is reported as 1.45 nM, the EC50 [2] is reported as 0.005 nM and the EC50 [3] is reported as 0.0163 nM.
Work on `CCCCCCCCCCCCCCCCCC(=O)N[C@@H](CCC(=O)NCCCC[C@H](NC(=O)[C@H](CCC(N)=O)NC(=O)[C@@H](NC(=O)[C@H](CO)NC(=O)[C@H](CC(C)C)NC(=O)[C@H](CC(=O)O)NC(=O)[C@H](CO)NC(=O)[C@@H](NC(=O)[C@H](Cc1ccccc1)NC(=O)[C@@H](NC(=O)CNC(=O)[C@H](CCC(N)=O)NC(=O)C(C)(C)NC(=O)[C@@H](N)Cc1ccc(O)cc1)[C@@H](C)O)[C@@H](C)O)[C@@H](C)CC)C(=O)N[C@@H](CC(=O)O)C(=O)N[C@@H](CCC(=O)O)C(=O)N[C@@H](CCC(N)=O)C(=O)N[C@@H](CCCNC(=N)N)C(=O)N[C@@H](C)C(=O)N[C@@H](CCCCN)C(=O)N[C@@H](CCC(=O)O)C(=O)N[C@@H](Cc1ccccc1)C(=O)N[C@H](C(=O)N[C@@H](CCC(=O)O)C(=O)N[C@@H](Cc1c[nH]c2ccccc12)C(=O)N[C@@H](CC(C)C)C(=O)N[C@@H](CCCCN)C(=O)N[C@@H](C)C(=O)NCC(=O)NCC(=O)N1CCC[C@H]1C(=O)N[C@@H](CO)C(=O)N[C@@H](CO)C(=O)NCC(=O)N[C@@H](C)C(=O)N1CCC[C@H]1C(=O)N1CCC[C@H]1C(=O)N1CCC[C@H]1C(=O)N[C@@H](CO)C(N)=O)[C@@H](C)CC)C(=O)O` [SEQ ID NO: 31, Y-Aib-Q-G-T-F-T-S-D-L-S-I-Q-K(yE-x70)-DEQRAKEFIEWLKAGGPSSGAPPPS-NH2] yielded an EC50 [1] of 0.0041 nM, an EC50 [2] of 0.0148 nM and an EC50 [3] of 0.0131 nM.

Source: US20140213513A1 (Sanofi, priority 2012, published 2014)
